From PMC11201061, “Mechanistic Study of Antimicrobial Effectiveness of Cyclic Amphipathic Peptide [R4W4] against Methicillin-Resistant Staphylococcus aureus Clinical Isolates” (Antibiotics, 2024)
In brackets after ≈: the same amount, converted by molar mass. Where two headings read alike, the source gives them in different places. Where a SMILES comes first, the peptide text is derived from it.

Columns and labels:
MRSA LAC [1] = assay: microbe, parasite or virus in culture; format: cell-based, Staphylococcus aureus
Procedure: The effects of cations on the antimicrobial activity of [R4W4] were determined against MRSA using vancomycin as a control. The bacteria aliquots were treated with MHB media containing the final concentration of sodium chloride (NaCl) (150, 75, 37.5, and 18.75 mM), calcium chloride (CaCl2) (8, 4, 2, and 1 mM), and ferric chloride (FeCl3) (1, 4, and 8 µM) in 96 well microplates. The MIC of [R4W4] and vancomycin were determined to determine whether there were changes in the MIC values when treated with different salt concentrations.

MRSA USA300 = assay: microbe, parasite or virus in culture; details: MRSA USA300, overnight 37 °C, duplicate
Procedure: The interaction of [R4W4], melittin, and vancomycin with LTA in the presence of MRSA was determined using a microbroth dilution assay. Two-fold serial dilution was used to achieve a 100 μL final concentration of the antibacterial agents in a 96 microplate well. A 360 μL S. aureus LTA (Sigma Aldrich stock 5 mg/mL) was added to 17.64 mL MHB containing MRSA (5 x 10^5 CFU/mL) to achieve the final concentration of S. aureus LTA 100 μg/mL. Then, 100 μL aliquots of MHB (MRSA (5 × 10^5 CFU/mL) and 100 μg/mL S. aureus LTA) were added to the 96 microtiter wells containing the antibacterial agents. The microplate was incubated overnight at 37 °C to obtain the MICs. Controls were bacteria grown in the presence of LTA alone and in MHB alone.

MRSA Mec 1 = assay: microbe, parasite or virus in culture; format: cell-based, Staphylococcus aureus
Procedure: (§1) To determine whether the antibacterial activity of [R4W4] is bacteriostatic or bactericidal against clinical isolates of multidrug-resistant bacterial isolates, MIC and MBC were determined using the microbroth dilution method. Bacteriostatic activity was defined as a ratio of the MBC/MIC greater than four and bactericidal activity as MBC/MIC ratio ≤ 4 [33]. We added aliquots of test samples (256 μg/mL concentration of [R4W4] or vancomycin as a control prepared in TSB) to the first well of microplates. MHB media was added to the remaining wells. Two-fold serial dilutions were performed, starting with the highest drug concentration in well 1, and the dilution process continued. A bacterial aliquot of 1/150 dilution was prepared with a 0.5 McFarland standard solution from an overnight culture of the tested bacteria isolate. Bacteria were added to the microplate and placed into wells with the drug dilutions. The microplates were incubated overnight for 24 h at 37 °C. [R4W4] was synthesized and purified, as reported earlier.

MRSA Mec III = assay: microbe, parasite or virus in culture; format: cell-based, Staphylococcus aureus
Procedure: as §1

MRSA Clin 5 = assay: microbe, parasite or virus in culture; format: cell-based, Staphylococcus aureus
Procedure: as §1

[2] = system: MRSA (vancomycin hetero-non-susceptible) MU3; assay: microbe, parasite or virus in culture; format: cell-based, Staphylococcus aureus
Procedure: as §1

MRSA LAC [3] = assay: microbe, parasite or virus in culture; format: cell-based, Staphylococcus aureus; remark: listed apart in the source
Procedure: as §1

MRSA Clin 6 = assay: microbe, parasite or virus in culture; format: cell-based, Staphylococcus aureus
Procedure: as §1

MRSA Mec IV = assay: microbe, parasite or virus in culture; format: cell-based, Staphylococcus aureus
Procedure: as §1

MRSA Mec II = assay: microbe, parasite or virus in culture; format: cell-based, Staphylococcus aureus
Procedure: as §1

MRSA Mec V = assay: microbe, parasite or virus in culture; format: cell-based, Staphylococcus aureus
Procedure: as §1

[4] = system: Enterococcus faecium (VRE); format: cell-based; details: urine isolate
Procedure: as §1

[5] = system: bacterial isolates (nine MRSA, B. subtilis, C. difficile, VRE); format: cell-based
Procedure: as §1

MRSA LAC [6] = details: for % Reduction in viable bacteria / Lethal rate (LR), log10 reduction: MRSA LAC in MHB
Procedure: The MRSA Los Angeles County (LAC) USA300 strain was cultured from −80 °C freezer stock and inoculated on an agar plate overnight. Two bacteria colonies were inoculated in MH broth overnight at 37 °C with shaking at 200 rpm. An aliquot was added to normal saline to achieve a 0.5 McFarland Standard suspension and then diluted 1:150 with MHB. The bacteria sample was plated on an agar plate at time zero. The test samples were prepared by adding [R4W4] or vancomycin to bacteria to achieve the final sample concentration of (1 × MIC, 2 × MIC, 4 × MIC) using media without antibacterial agents as positive control.
[…] The samples were diluted to minimize excessive CFU counts. The inoculated plates were incubated at 37 °C overnight. The surviving organisms were determined by counting colonies as CFU/plate. The average duplicate counts were multiplied by the dilution factors to arrive at CFU/mL. The microbial reduction was calculated by converting the count to log10 scale. The Log CFU/mL was plotted against time for different antibacterial concentrations.

C. difficile 9689 = assay: microbe, parasite or virus in culture; format: cell-based, Clostridioides difficile
Procedure: as §1

SMILES: N=C(N)NCCC[C@@H]1NC(=O)[C@H](CCCNC(=N)N)NC(=O)[C@H](CCCNC(=N)N)NC(=O)[C@H](Cc2c[nH]c3ccccc23)NC(=O)[C@H](Cc2c[nH]c3ccccc23)NC(=O)[C@H](Cc2c[nH]c3ccccc23)NC(=O)[C@H](Cc2c[nH]c3ccccc23)NC(=O)[C@H](CCCNC(=N)N)NC1=O [[R4W4]] (cyclo(RRRRWWWW))
- MIC in the presence of sodium chloride (MRSA LAC [1]; LAC): 6 to 8 µg/mL
- MIC under normal physiological conditions (MRSA LAC [1]; MRSA LAC, MHB without added salt): 4 µg/mL
- MIC in the presence of ferric chloride (MRSA LAC [1]; MRSA LAC, FeCl3 1, 2, 4 and 8 μM): increases proportionally with the concentration of ferric chloride
- MIC in the presence of LTA (MRSA USA300; 100 μg/mL S. aureus LTA in MHB): 8 µg/mL
- MIC in the absence of LTA (MRSA USA300; MHB): 8 µg/mL
- MBC/MIC (MRSA Mec 1; MRSA Mec 1, blood isolate): 2
- MBC (MRSA Mec 1; Mec 1, 24 h): 4 µg/mL (≈ 2.92 µM)
- MIC (MRSA Mec 1; Mec 1, 24 h): 2 µg/mL (≈ 1.46 µM)
- MBC/MIC (MRSA Mec III; MRSA Mec III, wound isolate): 2
- MBC (MRSA Mec III; Mec III, 24 h): 8 µg/mL (≈ 5.84 µM)
- MIC (MRSA Mec III; Mec III, 24 h): 4 µg/mL (≈ 2.92 µM)
- MBC (MRSA Clin 5; Clin 5, 24 h): 32 µg/mL (≈ 23.4 µM)
- MIC (MRSA Clin 5; Clin 5, 24 h): 16 µg/mL (≈ 11.7 µM)
- MBC/MIC (MRSA Clin 5; MRSA Clin 5, lung isolate): 2
- MBC/MIC ([2]; MRSA MU3, lung isolate): 2
- MBC ([2]; MRSA MU3, lung isolate, averages of triplicates of three different experiments): 32 µg/mL (≈ 23.4 µM)
- MIC ([2]; vancomycin hetero-non-susceptible) MU3, 24 h): 16 µg/mL (≈ 11.7 µM)
- MBC (MRSA LAC [3]; LAC, 24 h): 16 µg/mL (≈ 11.7 µM)
- MBC/MIC (MRSA LAC [3]; MRSA LAC, wound isolate): 4
- MBC (MRSA Clin 6; Clin 6, 24 h): 32 µg/mL (≈ 23.4 µM)
- MIC (MRSA Clin 6; Clin 6, 24 h): 32 µg/mL (≈ 23.4 µM)
- MBC/MIC (MRSA Clin 6; MRSA Clin 6, lung isolate): 1
- MBC/MIC (MRSA Mec IV; MRSA Mec IV, lung isolate): 2
- MBC (MRSA Mec IV; Mec IV, 24 h): 64 µg/mL (≈ 46.7 µM)
- MIC (MRSA Mec IV; Mec IV, 24 h): 32 µg/mL (≈ 23.4 µM)
- MBC/MIC (MRSA Mec II; MRSA Mec II, blood isolate): 2
- MBC (MRSA Mec II; Mec II, 24 h): 8 µg/mL (≈ 5.84 µM)
- MIC (MRSA Mec II; Mec II, 24 h): 4 µg/mL (≈ 2.92 µM)
- MBC/MIC (MRSA Mec V; MRSA Mec V, wound isolate): 4
- MBC (MRSA Mec V; Mec V, 24 h): 64 µg/mL (≈ 46.7 µM)
- MIC (MRSA Mec V; Mec V, 24 h): 16 µg/mL (≈ 11.7 µM)
- MBC/MIC [4]: 4
- MIC range, MRSA clinical isolates from the blood ([5]; 24 h): 2 to 4 µg/mL
- MIC range, MRSA clinical isolates from the lungs ([5]; 24 h): 16 to 32 µg/mL
- bacteriostatic or bactericidal (Pankey's definition, MBC/MIC ≤ 4 bactericidal) ([5]; all tested bacterial isolates): bactericidal
- MBC increase over MIC values ([5]; all the strains tested): 2–4 fold
- % Reduction in viable bacteria (MRSA LAC [6]; 1 × MIC, 100 × (1 − 10^−LR)): 99.67%
- % Reduction in viable bacteria (MRSA LAC [6]; 2 × MIC): 99.78%
- Lethal rate (LR), log10 reduction (MRSA LAC [6]; 2 × MIC): 2.65
- % Reduction in viable bacteria (MRSA LAC [6]; 4 × MIC): 99.87%
- Lethal rate (LR), log10 reduction (MRSA LAC [6]; 4 × MIC): 2.89
- viable bacteria at 26 h (MRSA LAC [6]; MRSA LAC, 4 × MIC, 26 h): bacteria remaining viable up to 26 h
- % reduction in viable bacteria over 1 × MIC, 2 × MIC and 4 × MIC (MRSA LAC [6]; MRSA in MHB, range over the three concentrations): 99.67–99.87%
- MBC (C. difficile 9689; 9689, 24 h): 4 µg/mL (≈ 2.92 µM)
- MIC (C. difficile 9689; 9689, 24 h): 2 µg/mL (≈ 1.46 µM)
- MBC/MIC (C. difficile 9689; C. difficile ATCC 9689, stool isolate): 2
